Experimental findings from ChEMBL document CHEMBL1152560, “Substituted 2-arylbenzothiazoles as kinase inhibitors: hit-to-lead optimization” (Bioorg Med Chem, 2009) are described below.

Molecules are shown by their SMILES.

The target in test [1] is T1, Eukaryotic elongation factor 2 kinase (Homo sapiens) (UniProt O00418).
T1 sequence (whole entry): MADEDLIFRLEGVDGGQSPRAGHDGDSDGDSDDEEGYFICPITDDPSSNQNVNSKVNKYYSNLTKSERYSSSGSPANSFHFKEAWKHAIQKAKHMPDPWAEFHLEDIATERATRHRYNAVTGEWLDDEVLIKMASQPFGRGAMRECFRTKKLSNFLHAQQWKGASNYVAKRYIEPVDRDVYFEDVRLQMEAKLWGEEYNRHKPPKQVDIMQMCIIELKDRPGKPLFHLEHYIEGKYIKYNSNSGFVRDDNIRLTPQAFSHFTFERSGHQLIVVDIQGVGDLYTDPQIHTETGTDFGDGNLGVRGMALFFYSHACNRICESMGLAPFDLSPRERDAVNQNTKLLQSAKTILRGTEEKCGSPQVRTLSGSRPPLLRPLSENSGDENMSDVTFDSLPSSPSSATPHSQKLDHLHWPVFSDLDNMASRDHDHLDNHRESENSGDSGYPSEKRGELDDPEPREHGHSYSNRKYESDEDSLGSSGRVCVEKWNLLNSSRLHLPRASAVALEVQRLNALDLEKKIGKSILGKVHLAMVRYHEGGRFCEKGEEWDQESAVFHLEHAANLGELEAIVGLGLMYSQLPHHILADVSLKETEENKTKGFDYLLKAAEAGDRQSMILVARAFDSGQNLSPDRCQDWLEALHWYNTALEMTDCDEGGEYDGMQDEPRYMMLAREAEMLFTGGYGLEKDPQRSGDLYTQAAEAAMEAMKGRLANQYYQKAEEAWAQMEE
Nature of the test: Residual activity of EEF2K at 1 uM by microplate scintillation counting.

Test [2] concerns the target Epidermal growth factor receptor (Homo sapiens, UniProt P00533). The experiment in a line: Residual activity of wild type EGF-R at 10 uM by microplate scintillation counting.
Test [3] concerns the target G protein-coupled receptor kinase 5 (Homo sapiens) (UniProt P34947). The experiment in a line: Residual activity of GRK5 at 10 uM by microplate scintillation counting.
In test [4] the target is T2, Cytoplasmic tyrosine-protein kinase BMX (Homo sapiens) (UniProt P51813).
T2 sequence (whole entry): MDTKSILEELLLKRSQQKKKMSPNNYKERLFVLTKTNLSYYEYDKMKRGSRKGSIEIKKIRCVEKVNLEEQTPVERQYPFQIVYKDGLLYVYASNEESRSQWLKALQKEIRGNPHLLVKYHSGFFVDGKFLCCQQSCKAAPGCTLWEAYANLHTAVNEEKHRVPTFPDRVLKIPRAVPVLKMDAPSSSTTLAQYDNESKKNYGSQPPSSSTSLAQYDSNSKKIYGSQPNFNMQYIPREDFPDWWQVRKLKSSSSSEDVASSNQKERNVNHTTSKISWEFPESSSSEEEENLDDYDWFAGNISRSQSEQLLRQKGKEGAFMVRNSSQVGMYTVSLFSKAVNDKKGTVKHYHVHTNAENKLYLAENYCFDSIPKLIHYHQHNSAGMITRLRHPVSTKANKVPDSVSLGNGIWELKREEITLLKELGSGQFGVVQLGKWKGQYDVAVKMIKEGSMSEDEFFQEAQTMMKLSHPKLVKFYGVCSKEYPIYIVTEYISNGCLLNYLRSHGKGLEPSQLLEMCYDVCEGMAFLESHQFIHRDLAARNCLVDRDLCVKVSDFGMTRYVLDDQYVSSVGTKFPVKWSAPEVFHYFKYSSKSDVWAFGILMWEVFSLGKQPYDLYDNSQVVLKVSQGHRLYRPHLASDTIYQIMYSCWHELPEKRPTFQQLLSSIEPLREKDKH
Nature of the test: Residual activity of BMX at 1 uM by microplate scintillation counting.

Test [5] concerns the target Cyclin-dependent kinase 2/cyclin E1 (Homo sapiens) (UniProt P24864+P24941). The experiment in a line: Residual activity of CDK2/Cyclin E at 10 uM by microplate scintillation counting. The format is protein-complex assay.
The target in test [6] is Ephrin type-A receptor 4 (Homo sapiens) (UniProt P54764). The experiment in a line: Residual activity of EPHA4 at 0.1 uM by microplate scintillation counting.
Test [7] addresses T3, Serine/threonine-protein kinase Nek2 (Homo sapiens) (UniProt P51955).
T3 sequence (whole entry): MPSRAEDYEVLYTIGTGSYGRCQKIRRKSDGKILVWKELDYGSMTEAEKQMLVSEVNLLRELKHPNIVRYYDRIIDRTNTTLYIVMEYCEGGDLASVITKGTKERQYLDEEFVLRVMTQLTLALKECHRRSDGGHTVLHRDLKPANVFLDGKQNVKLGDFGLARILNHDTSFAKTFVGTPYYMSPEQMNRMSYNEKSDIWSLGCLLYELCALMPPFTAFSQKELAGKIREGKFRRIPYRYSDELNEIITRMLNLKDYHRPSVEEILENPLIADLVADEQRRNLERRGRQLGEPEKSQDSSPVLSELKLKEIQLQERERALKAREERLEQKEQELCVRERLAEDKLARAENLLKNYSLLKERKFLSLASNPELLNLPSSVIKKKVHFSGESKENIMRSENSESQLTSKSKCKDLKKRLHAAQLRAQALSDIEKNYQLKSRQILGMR
The experiment in a line: Residual activity of NEK2 at 10 uM by microplate scintillation counting.

Test [8] addresses T4, Protein kinase C iota type (Homo sapiens) (UniProt P41743).
T4 sequence (whole entry): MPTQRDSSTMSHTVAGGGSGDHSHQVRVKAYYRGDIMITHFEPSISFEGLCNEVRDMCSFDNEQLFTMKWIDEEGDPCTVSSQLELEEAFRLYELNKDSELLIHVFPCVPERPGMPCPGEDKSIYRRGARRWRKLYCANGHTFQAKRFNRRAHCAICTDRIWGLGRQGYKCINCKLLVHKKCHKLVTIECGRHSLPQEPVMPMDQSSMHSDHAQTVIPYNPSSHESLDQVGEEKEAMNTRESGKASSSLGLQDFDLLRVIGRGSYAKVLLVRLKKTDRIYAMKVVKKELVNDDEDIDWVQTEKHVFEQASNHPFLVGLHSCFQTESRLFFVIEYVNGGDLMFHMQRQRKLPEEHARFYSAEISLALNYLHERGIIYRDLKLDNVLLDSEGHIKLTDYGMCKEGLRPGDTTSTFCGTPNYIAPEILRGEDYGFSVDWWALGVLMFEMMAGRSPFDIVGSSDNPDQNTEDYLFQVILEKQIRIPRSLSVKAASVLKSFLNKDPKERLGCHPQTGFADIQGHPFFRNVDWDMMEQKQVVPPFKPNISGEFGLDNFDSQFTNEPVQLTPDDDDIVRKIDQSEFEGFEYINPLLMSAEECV
Nature of the test: Residual activity of PKCiota at 0.1 uM by microplate scintillation counting.

Ephrin type-A receptor 4 (Homo sapiens), sequence (P54764 whole entry): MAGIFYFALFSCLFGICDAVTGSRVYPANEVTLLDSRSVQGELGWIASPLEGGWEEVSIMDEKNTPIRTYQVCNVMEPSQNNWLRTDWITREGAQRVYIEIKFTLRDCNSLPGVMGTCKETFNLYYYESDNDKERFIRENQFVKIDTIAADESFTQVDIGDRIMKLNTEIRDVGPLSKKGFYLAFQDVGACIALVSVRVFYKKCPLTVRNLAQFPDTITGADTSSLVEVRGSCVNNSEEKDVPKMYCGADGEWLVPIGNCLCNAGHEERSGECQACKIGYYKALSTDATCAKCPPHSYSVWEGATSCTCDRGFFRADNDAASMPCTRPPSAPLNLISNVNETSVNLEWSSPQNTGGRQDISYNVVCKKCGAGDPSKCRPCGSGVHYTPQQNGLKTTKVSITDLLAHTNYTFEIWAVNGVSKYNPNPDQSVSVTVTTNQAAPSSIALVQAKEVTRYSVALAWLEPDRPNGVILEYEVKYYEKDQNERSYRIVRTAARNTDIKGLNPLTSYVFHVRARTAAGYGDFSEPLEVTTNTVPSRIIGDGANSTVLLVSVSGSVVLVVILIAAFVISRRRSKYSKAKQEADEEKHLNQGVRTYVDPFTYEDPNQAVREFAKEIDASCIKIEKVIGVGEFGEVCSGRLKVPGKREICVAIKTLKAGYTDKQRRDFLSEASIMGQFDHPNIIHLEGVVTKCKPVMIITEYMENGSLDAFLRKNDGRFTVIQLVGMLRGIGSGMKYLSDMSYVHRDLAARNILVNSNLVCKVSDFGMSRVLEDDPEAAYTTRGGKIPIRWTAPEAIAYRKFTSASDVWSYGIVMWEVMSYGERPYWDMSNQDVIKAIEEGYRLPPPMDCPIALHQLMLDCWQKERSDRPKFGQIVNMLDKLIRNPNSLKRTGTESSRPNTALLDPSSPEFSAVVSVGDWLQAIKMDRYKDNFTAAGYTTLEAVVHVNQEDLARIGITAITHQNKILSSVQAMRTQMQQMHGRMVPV
G protein-coupled receptor kinase 5 (Homo sapiens), sequence (P34947 whole entry, looked up): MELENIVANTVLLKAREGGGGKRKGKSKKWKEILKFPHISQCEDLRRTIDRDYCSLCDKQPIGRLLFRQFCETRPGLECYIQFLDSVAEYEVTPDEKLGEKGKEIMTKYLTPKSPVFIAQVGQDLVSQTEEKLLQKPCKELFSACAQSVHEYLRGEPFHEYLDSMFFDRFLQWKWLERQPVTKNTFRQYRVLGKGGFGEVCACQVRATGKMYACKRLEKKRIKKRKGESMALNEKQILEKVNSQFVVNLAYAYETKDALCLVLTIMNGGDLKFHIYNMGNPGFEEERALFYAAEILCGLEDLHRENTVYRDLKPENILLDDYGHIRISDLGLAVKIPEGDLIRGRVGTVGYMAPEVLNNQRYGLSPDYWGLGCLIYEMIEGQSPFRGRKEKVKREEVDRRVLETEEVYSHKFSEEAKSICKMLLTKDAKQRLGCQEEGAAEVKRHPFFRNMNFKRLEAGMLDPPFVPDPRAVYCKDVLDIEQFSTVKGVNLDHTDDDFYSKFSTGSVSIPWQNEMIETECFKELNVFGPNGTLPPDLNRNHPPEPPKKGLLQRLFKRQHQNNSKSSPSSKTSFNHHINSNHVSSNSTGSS
Epidermal growth factor receptor, sequence (P00533 whole entry): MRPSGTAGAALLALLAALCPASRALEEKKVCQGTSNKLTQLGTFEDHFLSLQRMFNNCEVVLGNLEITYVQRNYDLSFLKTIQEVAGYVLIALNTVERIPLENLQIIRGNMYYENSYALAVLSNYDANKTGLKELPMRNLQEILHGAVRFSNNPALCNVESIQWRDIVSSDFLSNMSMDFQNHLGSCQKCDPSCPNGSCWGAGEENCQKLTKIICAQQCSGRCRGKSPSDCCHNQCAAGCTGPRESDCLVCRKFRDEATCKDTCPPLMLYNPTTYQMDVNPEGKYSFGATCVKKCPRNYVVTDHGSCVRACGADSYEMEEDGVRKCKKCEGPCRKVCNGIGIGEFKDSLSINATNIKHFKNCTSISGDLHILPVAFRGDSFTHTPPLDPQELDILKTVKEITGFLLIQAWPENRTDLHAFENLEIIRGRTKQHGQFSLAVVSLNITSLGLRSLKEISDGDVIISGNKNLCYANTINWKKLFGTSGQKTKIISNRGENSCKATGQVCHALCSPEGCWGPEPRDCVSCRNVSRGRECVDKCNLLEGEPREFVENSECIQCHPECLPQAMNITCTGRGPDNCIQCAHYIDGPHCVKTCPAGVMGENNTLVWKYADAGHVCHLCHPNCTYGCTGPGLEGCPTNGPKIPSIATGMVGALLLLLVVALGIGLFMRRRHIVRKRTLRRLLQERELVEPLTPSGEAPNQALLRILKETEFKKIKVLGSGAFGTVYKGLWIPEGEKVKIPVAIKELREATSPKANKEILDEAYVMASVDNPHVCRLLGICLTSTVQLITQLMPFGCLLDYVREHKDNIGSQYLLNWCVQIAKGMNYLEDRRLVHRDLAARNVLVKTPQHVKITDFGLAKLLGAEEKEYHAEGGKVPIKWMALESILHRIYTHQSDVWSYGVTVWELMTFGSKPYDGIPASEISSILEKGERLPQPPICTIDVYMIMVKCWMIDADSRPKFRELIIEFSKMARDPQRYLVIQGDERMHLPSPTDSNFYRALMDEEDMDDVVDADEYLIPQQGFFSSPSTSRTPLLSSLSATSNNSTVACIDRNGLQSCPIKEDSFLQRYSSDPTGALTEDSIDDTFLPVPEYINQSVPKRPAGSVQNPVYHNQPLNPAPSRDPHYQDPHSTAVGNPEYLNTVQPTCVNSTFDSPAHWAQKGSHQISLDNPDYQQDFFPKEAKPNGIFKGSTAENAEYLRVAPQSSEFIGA

Take `COc1cc2c(Oc3ccc(-c4nc5ccccc5s4)cc3)ncnc2cc1OCCCN1CCN(C)CC1`: the residual activity in test [1] came out at 82%; in test [2], 52%; in test [3], 76%; in test [4] it was 122%; in test [5] it was 186%; in test [6], 103%. Further, the results for the residual activity in test [7] and in test [8] were 54% and 105%, respectively.

Take `COc1cc2c(Oc3ccc(-c4nc5ccccc5s4)cc3)ncnc2cc1OCCCN1CCCC1`: the residual activity in test [1] amounted to 86%; in test [2] it was 67%; in test [3] it was 81%; in test [4], 127%; in test [5], 116%; in test [6], 93%. Moreover, the residual activity in test [7] was 34%; in test [8], 102%.

For the compound `COc1cc2c(Oc3ccc(-c4nc5ccccc5s4)cc3F)ncnc2cc1OCCCN1CCN(C)CC1`, the residual activity in test [1] amounted to 90%; in test [2] it was 48%; in test [3], 84%; in test [4] it was 128%; in test [5], 194%; in test [6] it was 93%. Besides, the residual activity in test [7] turned out to be 38%; in test [8] it was 87%.
